Target: T1, 5-lipoxygenase (Mus musculus, UniProt P48999)
T1 construct: The supernatant is used as a 5-lipogenase enzyme solution; endogenous in cells
T1 sequence (P48999 1-674): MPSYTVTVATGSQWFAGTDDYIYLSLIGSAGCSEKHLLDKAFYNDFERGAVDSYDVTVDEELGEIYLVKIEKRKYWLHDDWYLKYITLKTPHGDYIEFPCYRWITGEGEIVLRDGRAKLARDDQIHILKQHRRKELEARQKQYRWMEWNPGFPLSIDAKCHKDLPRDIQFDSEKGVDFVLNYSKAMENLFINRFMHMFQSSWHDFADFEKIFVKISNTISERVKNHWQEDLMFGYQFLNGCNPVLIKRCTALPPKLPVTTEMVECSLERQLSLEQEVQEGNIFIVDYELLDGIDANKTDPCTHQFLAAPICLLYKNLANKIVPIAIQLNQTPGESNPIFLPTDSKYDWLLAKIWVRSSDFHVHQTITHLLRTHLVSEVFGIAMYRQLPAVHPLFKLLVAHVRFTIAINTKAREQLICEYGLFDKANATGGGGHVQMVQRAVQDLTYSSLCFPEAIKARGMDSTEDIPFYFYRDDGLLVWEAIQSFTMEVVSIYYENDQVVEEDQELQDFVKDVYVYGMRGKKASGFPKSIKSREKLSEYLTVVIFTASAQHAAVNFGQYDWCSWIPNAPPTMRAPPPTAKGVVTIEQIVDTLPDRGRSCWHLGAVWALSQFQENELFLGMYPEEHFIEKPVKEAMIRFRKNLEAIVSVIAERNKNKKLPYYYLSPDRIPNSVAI
Test: 5-Lipoxygenase-inhibiting Activity (decrease in 5-HETE and LTB4 formed from radiolabelled arachidonic acid, enzyme solution from mouse mastcytoma cells P-815)
Assay type: biochemical
Conditions: 5-HETE and LTB4 formation; mouse mastcytoma P-815 enzyme solution; 37° C., 5 min; pH 7.4; with indomethacin; read-out: 50% Inhibitory concentration IC50
Procedure, shortened: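 Enzyme is sonicated 10,000 rpm supernatant of P-815 mouse mastocytoma cells, reacted 5 min at 37 °C with radiolabelled arachidonic acid, indomethacin and CaCl2 in pH 7.4 phosphate buffer. 5-HETE and LTB4 separated by TLC and counted by scintillation; IC50 or IC30 is concentration reducing product to 50% or 30% of control.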

Structure (SMILES) | IC50 [nM]
COc1cc(/C=C/C(=O)NCCCCN2CCC(OC(c3ccccc3)c3ccccc3)CC2)ccc1O [Example 124, 1-[4-[3-(3-methoxy-4-hydroxyphenyl)-2-propenoyl]aminobutyl]-4-benzhydroxypiperidine] | 200
COc1cc(/C=C/C(=O)N2CCN(CCCCn3cnc4c3c(=O)n(C)c(=O)n4C)CC2)cc(OC)c1O [Example 125, 7-[4-[4-{3-(3,5-dimethoxy-4-hydroxyphenyl)-2-propenoyl}piperazi-1-nyl]butyl]theophylline] | 7000
COc1cc(/C=C/C(=O)N2CCN(CCCn3cnc4c3c(=O)n(C)c(=O)n4C)CC2)cc(OC)c1OC [Example 127, 7-[3-[4-[3-(3,4,5-trimethoxyphenyl)-2-propenoyl]piperazi-1-nyl]-1-propyl]theopylline] | 30000
Cn1c(=O)c2c(ncn2CCCN2CCN(C(=O)/C=C/C=C/c3ccc(O)c(O)c3)CC2)n(C)c1=O [Example 128, 7-[3-[4-[5-(-dihydroxyphenyl)-2,4-pentadienoyl]piperazi-1-nyl]-1-propyl]theophylline] | 1000
COc1cc(/C=C/C=C/C(=O)N2CCN(CCCCn3cnc4c3c(=O)n(C)c(=O)n4C)CC2)ccc1O [Example 130] | 1000
COc1cc(/C=C/C=C/C(=O)N2CCN(CCCCn3cnc4c3c(=O)n(C)c(=O)n4C)CC2)cc(OC)c1O [Example 132] | 1000
COc1cc(/C=C/C=C/C(=O)N2CCN(CCCn3cnc4c3c(=O)n(C)c(=O)n4C)CC2)cc(OC)c1OC [Example 134, 7-[3-[4-[5-(3,4,5-trimethoxyphenyl)-2,4-pentadienoyl]piperazi-1-nyl]-1-propyl]theophylline] | 20000

Now those with a lower IC50, led by results:

IC50 [nM] | Structure (SMILES)
10 | COc1cc(/C=C/C(=O)NCCCN2CCC(OC(c3ccccc3)c3ccccc3)CC2)cc(OC)c1O [Example 126, 1-[3-{3-(3,5-dimethoxy-4-hydroxyphenyl)-2-propenoyl}aminopropyl]-4-benzhydroxypiperidine]
20 | O=C(/C=C/C=C/c1ccc(O)c(O)c1)NCCCCN1CCC(OC(c2ccccc2)c2ccccc2)CC1 [Example 129, 1-[4-[5-(3,4-dihydroxyphenyl)-2,4-pentadienoyl]aminobutyl]-4-benzhydroxypiperidine]
7 | COc1cc(/C=C/C=C/C(=O)NCCCN2CCC(OC(c3ccccc3)c3ccccc3)CC2)ccc1O [Example 131]
20 | COc1cc(/C=C/C=C/C(=O)NCCCCN2CCC(OC(c3ccccc3)c3ccccc3)CC2)cc(OC)c1O [Example 133, 1-[4-[5-(3,5-dimethoxy-4-hydroxyphenol)-2,4-pentadienoyl]aminobutyl]-4-benzydroxypiperidine]
